Measured values: PubChem BioAssay (NCI)
Several values for one entry are separate records, joined by “and”; a condition that tells them apart may be missing. Equal values may be shown once.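 Dose response: 5 concentrations. Exposure: 48 h. Format: 96-well plates. Endpoint: linear interpolation; highest concentration if not reached. GI50: concentration for 50% inhibition of growth. TGI marks complete inhibition of growth.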 Peptide text beside a SMILES is read from it. * marks the point of attachment. X34 = O=C(c1ccc(-c2ccc(Cl)cc2Cl)o1)*

Tests used:
Experiment in all cases: NCI tumour cell line growth inhibition, 48 h
HCT-15 colon = test system: HCT-15 colon
UO-31 renal = test system: UO-31 renal
SF-539 CNS = test system: SF-539 CNS
786-0 renal = test system: 786-0 renal
DLD-1 colon = test system: DLD-1 colon
LXFL 529 NSCLC = test system: LXFL 529 NSCLC
DMS 114 small cell lung = test system: DMS 114 small cell lung
XF 498 CNS = test system: XF 498 CNS
KM20L2 colon = test system: KM20L2 colon
M19-MEL melanoma = test system: M19-MEL melanoma
HOP-18 NSCLC = test system: HOP-18 NSCLC
SNB-78 CNS = test system: SNB-78 CNS
RXF-631 renal = test system: RXF-631 renal
DMS 273 small cell lung = test system: DMS 273 small cell lung
P388/ADR leukemia = test system: P388/ADR leukemia
SN12K1 renal = test system: SN12K1 renal
P388 leukemia = test system: P388 leukemia

SMILES	TGI (HCT-15 colon)	TGI (UO-31 renal) [µM]	TGI (SF-539 CNS) [µM]	TGI (786-0 renal) [µM]	TGI (DLD-1 colon) [µM]	TGI (DMS 114 small cell lung) [µM]	TGI (KM20L2 colon) [µM]	TGI (M19-MEL melanoma) [µM]	TGI (SNB-78 CNS) [µM]	TGI (DMS 273 small cell lung) [µM]	also measured
CC1=C(SCCO)C(=O)c2ccccc2C1=O	25.3 µM	20.3	24.9	–	–	–	–	–	–	–	–
CCCCC(=O)c1c(O)ccc2c(C)cc(=O)oc12	> 100 µM	> 100	> 100	> 100	–	–	–	–	–	–	–
CC[C@@]1(O)C[C@H](OC2CC(N(C)C)C(OC3CC(O)C(OC4CCC(=O)C(C)O4)C(C)O3)C(C)O2)c2c(cc3c(c2O)C(=O)c2c(O)cccc2C3=O)C1C(=O)OC (stereo not given in full)	1.2 µM and 3.13 µM	–	–	–	5.46	0.474	4.64	0.799	–	–	TGI (LXFL 529 NSCLC): 1.68 µM; GI50 (XF 498 CNS): 0.0025 µM; TGI (XF 498 CNS): 0.294 µM; TGI (HOP-18 NSCLC): 1.85 µM
C1=CC=C2NCCc3cccc(c3)CCNC3=CC=CC=CC3=NCCCCCCN=C2C=C1	56.3 µM	89.1	23.5	–	> 100	26.1	24.8	30.3	> 100	21.9	TGI (LXFL 529 NSCLC): 23.6 µM; TGI (RXF-631 renal): 28 µM
[C-]#[N+]C(=C\c1ccc(O)cc1)/C(=C/c1ccc(O)cc1)[N+]#[C-]	> 100 µM	–	–	> 100	–	–	–	–	–	–	–
N#Cc1ccc([N+](=O)[O-])cc1NC(N)=S	> 100 µM	> 100	> 100	–	–	–	> 100	> 100	> 100	> 100	TGI (LXFL 529 NSCLC): 32.6 µM; TGI (XF 498 CNS): > 100 µM; TGI (RXF-631 renal): > 100 µM; TGI (HOP-18 NSCLC): > 100 µM
O=S(=O)(O)c1cc(S(=O)(=O)O)c2c(N=Nc3ccc(S(=O)(=O)O)c4ccccc34)c(O)ccc2c1	> 100 µM	> 100	–	> 100	–	–	–	–	–	–	–
CC(=O)OCCCCN1C(=O)CSc2ccccc21	> 100 µM	> 100	> 100	–	–	–	–	–	–	–	–
CC(C)C1=CC2=CC[C@@H]3[C@](C)(CCC[C@@]3(C)C(=O)O)[C@H]2CC1	> 87 µM	> 82.7	> 100	–	> 100	> 100	> 100	> 100	> 96.2	> 100	TGI (LXFL 529 NSCLC): > 100 µM; TGI (XF 498 CNS): > 100 µM; TGI (RXF-631 renal): > 100 µM; TGI (HOP-18 NSCLC): > 100 µM
CN(C)c1ccc(C2CC(=O)CC(c3ccc(N(C)C)cc3)C23C(=O)NC(=S)NC3=O)cc1 (stereo not given)	> 100 µM	> 100	> 100	> 100	–	–	–	–	–	–	–
C=CCn1c(=O)c(Br)nn(CCOCP(=O)(OCC)OCC)c1=O	> 100 µM	> 100	> 100	–	–	–	–	–	–	–	–
COc1cc2c3c(n(CCCn4cncn4)c(=O)c2cc1OC)-c1cc2c(cc1C3=O)OCO2	> 100 µM	> 100	19.6	> 49.3	–	–	–	–	–	–	GI50 (HCT-15 colon): > 100 µM; GI50 (UO-31 renal): 0.0913 µM
COc1ccc(C(=O)c2nc3ccccc3nc2N2CCN(c3ccccc3)CC2)cc1OC	> 100 µM	> 100	> 100	> 100	–	–	–	–	–	–	–
COC(=O)C(CC(C)C)NC(=O)C(Cc1ccccc1)NC(=O)C1CCCN1C(=O)C(CO)NC(=O)c1ccc(-c2ccc(Cl)cc2Cl)o1 (stereo not given) (X34-SPFL-OMe; configuration not given here)	72.6 µM	65.2	60.4	56.9	–	–	–	–	–	–	–
COc1nc2ccc(CNc3ccc(C(=O)NC(CCC(=O)O)C(=O)O)cc3)cc2nc1OC (stereo not given)	> 100 µM	> 100	–	–	–	–	–	–	–	–	–
O=Cc1ccccc1CCn1c(=O)c2cc3c(=O)n(CCc4ccccc4C=O)c(=O)c3cc2c1=O	> 100 µM	> 100	> 100	–	> 100	> 100	–	–	> 100	> 100	TGI (LXFL 529 NSCLC): > 100 µM
CN1c2c(nc(N)[nH]c2=O)NCC1CCNc1ccc(C(=O)NC(CCC(=O)O)C(=O)O)cc1 (stereo not given)	3010 µM	2590	2190	1840	2350	1770	2280	778	2660	1560	TGI (P388/ADR leukemia): 1410 µM; TGI (XF 498 CNS): 2150 µM; TGI (SN12K1 renal): 1810 µM; TGI (HOP-18 NSCLC): 2950 µM; TGI (P388 leukemia): 651 µM
O=c1oc2cc(O)ccc2c2oc3cc(O)ccc3c12	> 125 µM	> 117	122	–	> 125	> 12.5	123	> 125	> 86.3	> 121	TGI (P388/ADR leukemia): > 125 µM; TGI (XF 498 CNS): > 19.8 µM; TGI (SN12K1 renal): > 112 µM; TGI (HOP-18 NSCLC): > 125 µM; TGI (P388 leukemia): > 125 µM
CC(=O)OC12CC[N+]3(C)CCCCC3C1=Nc1ccccc12 (stereo not given)	> 100 µM	> 100	> 100	> 100	–	–	–	–	–	–	–
Nc1nc(SCCNC(=O)CCc2ccc(O)c(I)c2)nc2c1ncn2C1OC(CO)C(O)C1O (stereo not given)	> 100 µM	–	> 100	–	> 100	> 100	> 100	> 100	> 100	> 100	TGI (LXFL 529 NSCLC): > 100 µM; TGI (XF 498 CNS): > 100 µM
CCOc1ccccc1Nc1ccc(N)cc1S(=O)(=O)O	> 100 µM	> 100	–	> 100	–	–	–	–	–	–	–
CC[C@@H]1CSC(/C=C/C2OC3OC(C)(C)OC3C3OC(C)(C)OC23)=N1 (stereo not given in full)	15.3 µM	22.8	30.4	15.9	–	–	–	–	–	–	–
